From patent US20180085381A1, “Adjunctive Therapy With 25-Hydroxyvitamin D” (priority 2014, published 2018)
Values belong to the compound of their own block, whether it stands above or below them.

Columns and labels:
[1] = test system: adult male and female patients with osteoporosis; assay: Efficacy study in osteoporosis patients treated with an antiresorptive agent (denosumab); assay type: in vivo, human; details: for incidence of hypocalcemia and severity of secondary hyperparathyroidism: once stable dosing has been achieved, denosumab-treated
[2] = test system: adult female patients with breast cancer; assay: Efficacy study in breast cancer patients treated with denosumab; assay type: in vivo, human; details: for incidence of hypocalcemia and severity of secondary hyperparathyroidism: once stable dosing has been achieved, denosumab-treated
[3] = test system: adult patients diagnosed with metastases in bone originating from breast or prostate cancer; assay type: in vivo, human
Procedure: At the start of the study, all patients have plasma PTH greater than 70 pg/mL as evidence of SHPT, serum calcium less than 9.8 mg/dL, spot urine Ca:Cr ratio≦0.25 (≦250 mg/g creatinine) and an estimated glomerular filtration rate greater than 15 mL/min/1.73 m^2. […] Denosumab or zoledronic acid are administered according to the typical standard of care for each patient's condition.
The 52-week study consists of a 40 week dose escalation phase followed by a 12-week maintenance phase. At the end of the maintenance phase, there is a two-week follow up phase. At the start of the study, all patients receive an initial daily dose of 30 mcg 25-hydroxyvitamin D3, which is increased at four-week intervals over the course of the dose escalation phase up to a maximum daily dose of 300 mcg. The daily dose achieved by the end of the dose escalation study is the daily dose administered during the maintenance phase.
Blood samples are collected at 2-week intervals for monitoring serum levels of calcium and phosphorus. Samples are collected at 4-week intervals for monitoring plasma levels of PTH and PTHrP and serum total 25-hydroxyvitamin D, 24,25-dihydroxyvitamin D3, calcitriol, and free and total calcifediol. Serum vitamin D metabolites and markers of bone metabolism, immune function, and tumor burden are measured at the beginning of the dose escalation phase and at the beginning and end of the maintenance phase. Urine samples are collected at 4-week intervals for monitoring the Ca/Cr ratio and urine chemistry. The genotype of vitamin D binding protein is determined for each subject at the beginning of the dose escalation phase.

[4] = test system: adult patients diagnosed with metastases in bone originating from breast or prostate cancer; assay: Efficacy study in patients with metastatic bone disease receiving an antiresorptive agent (6-month, placebo-controlled); assay type: in vivo, human
Procedure: Denosumab or zoledronic acid are administered according to the typical standard of care for each patient's condition. […] Samples are collected at monthly intervals for monitoring serum and urine levels of calcium, plasma levels of PTH and serum total 25-hydroxyvitamin D. Serum markers of tumor burden and bone metabolism, as well as cancer progression are assessed at 3-month intervals.

[5] = test system: castration-resistant prostate cancer or estrogen-independent breast cancer metastatic to bone; assay: Efficacy study in patients with metastatic bone disease for prevention of SREs (24-month, placebo-controlled); assay type: in vivo, human
Procedure: Denosumab or zoledronic acid are administered according to the typical standard of care for each patient's condition. Patients are monitored for SREs, including by appropriate non-invasive imaging techniques, and serum markers of tumor burden and bone metabolism at 3-month intervals, and at monthly intervals for serum and urine calcium levels and plasma PTH. Cancer progression is monitored at quarterly intervals.

[6] = test system: adult male patients with bone-metastasized castration-resistant prostate cancer; assay: Efficacy study in prostate cancer patients treated with denosumab; details: for incidence of hypocalcemia and severity of SHPT and hypercalcemia: once stable dosing has been achieved, denosumab-treated
Procedure: In a randomized, double-blind controlled study, patients are treated with denosumab (120 mg every four weeks). All denosumab-treated patients are randomized to receive daily oral treatment with one softgel capsule containing either 30 mcg of 25-hydroxyvitamin D3 in a modified release formulation or 400 IU of Vitamin D3 in an immediate release formulation. A total of 500 subjects participate in this study, all of whom are aged 18 years or older with histologically confirmed prostate cancer. […] All patients receive a radioisotope bone scan during screening with subsequent imaging by CT, MRI, or plain radiograph if needed to confirm bone metastases. All subjects receive calcium supplements (500 mg/day) and abstain from taking other Vitamin D supplements for 60 days before study start and continuing through study termination, and from significant sun exposure.
All subjects begin daily dosing with softgel capsules at the start of denosumab treatment. Serum total 25-hydroxyvitamin D, PTH, calcium, phosphorus, N- and C-telopeptides, and P1NP, and urinary calcium, phosphorus and creatinine, are measured monthly. Radiographic bone scans are conducted every 6 months to detect skeletal metastases, with a second imaging modality (CT, MRI, or plain radiograph) used to confirm diagnosis of any metastases detected. Bone mineral density at four sites (total hip, femoral neck, ⅓ radius and lumbar spine) is determined at the start of the study and thereafter at yearly intervals. After 3 months, the daily dosage of 25-hydroxyvitamin D3 capsules is maintained unchanged in patients whose serum total 25-hydroxyvitamin D is between 50 and 90 ng/mL, and increased by one 30 mcg capsule in patients whose serum total 25-hydroxyvitamin D is below 50 ng/mL.

[7] = test system: patients with bone metastases; details: patients with bone metastases treated with zoledronic acid; cited from earlier work
[8] = with denosumab, versus denosumab and vitamin D3
[9] = with denosumab, 24 months, compared to denosumab and Vitamin D3
[10] = 6 months, with denosumab or zoledronic acid, compared to placebo
[11] = with denosumab or zoledronic acid, compared to placebo combination
[12] = 24 months, with denosumab or zoledronic acid, compared to placebo

- serum levels of 25-hydroxyvitamin D3 after 24 months ([1]; human, in vivo): higher and more consistent
- serum levels of 25-hydroxyvitamin D3 after 24 months ([2]; human, in vivo): higher and more consistent
- change in serum 1,25-dihydroxyvitamin D ([3]; human, in vivo): significant increases
- change in serum 24,25-dihydroxyvitamin D ([3]; human, in vivo): significant increases
- change in serum total 25-hydroxyvitamin D ([3]; human, in vivo): significant increases
- serum calcium in the dose escalation phase ([3]; human, in vivo): gradually rises
- serum levels of 25-hydroxyvitamin D3 after 24 months [6, 8]: higher and more consistent
Compound: C=C1CC[C@H](O)C/C1=C/C=C1\CCC[C@]2(C)[C@@H]([C@H](C)CCCC(C)(C)O)CC[C@@H]12 [25-hydroxyvitamin D3]
- side effects related to calcium and PTH metabolism ([1]; human, in vivo): without causing unacceptable side effects
- incidence of hypocalcemia and severity of secondary hyperparathyroidism [1]: markedly reduced
- increases in bone mineral density ([1]; with denosumab, 24 months, versus denosumab and Vitamin D3): larger increases
- serum PTH levels after 24 months [1, 8]: lower
- side effects related to calcium and PTH metabolism ([2]; human, in vivo): without causing unacceptable side effects
- incidence of hypocalcemia and severity of secondary hyperparathyroidism [2]: markedly reduced
- incidence of hypocalcemia [2, 9]: significantly lower incidence
- increases in bone mineral density [2, 9]: larger increases
- time to additional bone metastasis [2, 9]: significantly delayed
- serum PTH levels after 24 months [2, 8]: lower
- plasma PTH in the dose escalation phase ([3]; 30 to 300 mcg daily, raised at four-week intervals, with denosumab or zoledronic acid): decreases
- plasma PTH [4, 10]: decrease
- risk of hypocalcemia [4, 10]: reduced risk
- serum calcium [4, 10]: greater increase
- side effects related to calcium and PTH metabolism ([4]; modified release formulation): without causing unacceptable side effects
- cancer progression ([4]; modified release formulation, 6 months): delaying cancer progression
- time to additional bone metastasis [4, 11]: increased delay
- plasma PTH [5, 12]: decrease
- risk of hypocalcemia [5, 12]: reduced risk
- serum calcium [5, 12]: greater increase
- observed time to a post-treatment SRE ([5]; compared to placebo): significantly increasing
- tumor progression ([5]; compared to placebo): inhibiting tumor progression
- time to additional bone metastasis or SRE [5, 11]: increased delay
- side effects related to calcium and PTH metabolism ([6]; modified release formulation, with denosumab): without causing unacceptable side effects
- incidence of hypocalcemia and severity of SHPT and hypercalcemia [6]: markedly reduced
- incidence of hypocalcemia [6, 9]: significantly lower incidence
- increases in bone mineral density [6, 9]: larger increases
- plasma PTH levels [6, 9]: reduced
- time to first post-treatment SRE [6, 9]: significantly delayed
- serum PTH levels after 24 months [6, 8]: lower

Compound: C=C1CC[C@H](O)C/C1=C/C=C1\CCC[C@]2(C)[C@@H]([C@H](C)CCCC(C)C)CC[C@@H]12 [Vitamin D3, cholecalciferol, reference compound]
- incidence of hypocalcemia and severity of secondary hyperparathyroidism [1]: occur more frequently
- incidence of hypocalcemia and severity of secondary hyperparathyroidism [2]: occur more frequently
- incidence of hypocalcemia and severity of SHPT and hypercalcemia [6]: more frequently

Compound: O=P(O)(O)C(O)(Cn1ccnc1)P(=O)(O)O [zoledronic acid]
- patients who developed hypocalcemia [7]: 39%
